Starred links: 1 amine or outer side, 2 acyl side, 3 side chain; linkers in the order of their positions; H or OH if unused. Non-standard residues stand in square brackets, D forms with d. Residues, ends and D or L forms follow the SMILES beside them. Phe(4-(5-CO2H-2-pyrimidyl)) = N[C@@H](Cc1ccc(-c2ncc(C(=O)O)cn2)cc1)C(=O)O; dPro(4R-(4-pyridylmethyl)) = O=C(O)[C@H]1C[C@@H](Cc2ccncc2)CN1; Trp(βS-Me,4-F) = C[C@@H](c1c[nH]c2cccc(F)c12)[C@H](N)C(=O)O; Bip(4'-COOH) = N[C@@H](Cc1ccc(-c2ccc(C(=O)O)cc2)cc1)C(=O)O; X28 = CC(=O)N1CCN(c2ncc(C[C@H](N[*:1])C(=O)[*:2])cn2)CC1; X37 = CC(=O)N1CCN(c2ccc(C[C@H](N[*:1])C(=O)[*:2])cn2)CC1; dPro(4R-Bzl(4-F)) = O=C(O)[C@H]1C[C@@H](Cc2ccc(F)cc2)CN1; Ala(pyrimidin-5-yl) = N[C@@H](Cc1cncnc1)C(=O)O; Phe(4-COOH) = N[C@@H](Cc1ccc(C(=O)O)cc1)C(=O)O; Pro(cis-4-F) = O=C(O)[C@@H]1C[C@H](F)CN1; 4Pal = N[C@@H](Cc1ccncc1)C(=O)O; Dab = NCC[C@H](N)C(=O)O; Aib = CC(C)(N)C(=O)O

For orientation: IC50 means the concentration that inhibits the measured activity by half.

The target of the assay is T1, IL-1β (Homo sapiens, UniProt P01584).
T1 construct: purchased BioLegend 579404
T1 sequence (P01584 117-269): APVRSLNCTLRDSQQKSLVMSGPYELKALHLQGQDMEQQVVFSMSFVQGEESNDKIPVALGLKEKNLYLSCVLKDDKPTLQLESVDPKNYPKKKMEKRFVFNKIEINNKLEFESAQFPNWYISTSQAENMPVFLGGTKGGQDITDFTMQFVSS
Nature of the assay: IL-6 assay in MRC5 cells: inhibition of IL-1β induced IL-6 secretion (AlphaLISA). The class given is cell-based. Particulars: inhibition of IL-1β induced IL-6 secretion in MRC5 cells; read-out: MRC5 IC50. The method in brief:
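Compound was pre-incubated 1 h at ambient temperature with recombinant human IL-1β at 2λ EC80 before adding human lung fibroblast MRC5 cells (3000/well) in EMEM with 0.025% BSA. After overnight culture at 37 °C, 5% CO2, secreted IL-6 in conditioned medium was measured by AlphaLISA; IC50 from 4-parameter logistic fits.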
`C[C@@H](c1c[nH]c2cccc(F)c12)[C@@H]1NC(=O)[C@@H]2C[C@H](F)CN2C(=O)CNC(=O)[C@H](Cc2ccc(C(=O)O)cc2)NC(=O)[C@H](Cc2ccncc2)NC(=O)[C@H](Cc2ccc(-c3ncc(C(=O)O)cn3)cc2)NC(=O)[C@H]2C[C@@H](Cc3ccc(F)cc3)CN2C(=O)CNC(=O)[C@H](CCN)NC(=O)[C@H](CCC(N)=O)NC(=O)[C@H](Cc2cncnc2)NC(=O)C(C)(C)NC(=O)[C@H](Cc2c[nH]c3ccccc23)NC(=O)[C@H](CCC(=O)O)NC(=O)C(C)(C)NC1=O` [Example 38] (cyclo([Phe(4-(5-CO2H-2-pyrimidyl))][4Pal][Phe(4-COOH)]G[Pro(cis-4-F)][Trp(βS-Me,4-F)][Aib]EW[Aib][Ala(pyrimidin-5-yl)]Q[Dab]G[dPro(4R-Bzl(4-F))])): the IC50 is 0.041 nM.
The result for `CC(=O)N1CCN(c2ccc(C[C@@H]3NC(=O)[C@H]4C[C@@H](Cc5ccc(F)cc5)CN4C(=O)CNC(=O)[C@H](CCN)NC(=O)[C@H](CCC(N)=O)NC(=O)[C@H](Cc4cncnc4)NC(=O)C(C)(C)NC(=O)[C@H](Cc4c[nH]c5ccccc45)NC(=O)[C@H](CCC(=O)O)NC(=O)C(C)(C)NC(=O)[C@H]([C@@H](C)c4c[nH]c5cccc(F)c45)NC(=O)[C@@H]4C[C@H](F)CN4C(=O)CNC(=O)[C@H](Cc4ccc(C(=O)O)cc4)NC(=O)[C@H](Cc4ccncc4)NC3=O)cn2)CC1` [Example 39] (cyclo([X37][4Pal][Phe(4-COOH)]G[Pro(cis-4-F)][Trp(βS-Me,4-F)][Aib]EW[Aib][Ala(pyrimidin-5-yl)]Q[Dab]G[dPro(4R-Bzl(4-F))])) reads 0.063 nM; that for `CC(=O)N1CCN(c2ncc(C[C@@H]3NC(=O)[C@H]4C[C@@H](Cc5ccc(F)cc5)CN4C(=O)CNC(=O)[C@H](CCN)NC(=O)[C@H](CCC(N)=O)NC(=O)[C@H](Cc4cncnc4)NC(=O)C(C)(C)NC(=O)[C@H](Cc4c[nH]c5ccccc45)NC(=O)[C@H](CCC(=O)O)NC(=O)C(C)(C)NC(=O)[C@H]([C@@H](C)c4c[nH]c5cccc(F)c45)NC(=O)[C@@H]4C[C@H](F)CN4C(=O)CNC(=O)[C@H](Cc4ccc(C(=O)O)cc4)NC(=O)[C@H](Cc4ccncc4)NC3=O)cn2)CC1` [Example 40] (cyclo([X28][4Pal][Phe(4-COOH)]G[Pro(cis-4-F)][Trp(βS-Me,4-F)][Aib]EW[Aib][Ala(pyrimidin-5-yl)]Q[Dab]G[dPro(4R-Bzl(4-F))])), 0.048 nM.
To `C[C@@H]1NC(=O)C(C)(C)NC(=O)[C@H]([C@@H](C)c2c[nH]c3cccc(F)c23)NC(=O)[C@@H]2C[C@H](F)CN2C(=O)CNC(=O)[C@H](Cc2ccc(C(=O)O)cc2)NC(=O)[C@H](Cc2ccncc2)NC(=O)[C@H](Cc2ccc(-c3ccc(C(=O)O)cc3)cc2)NC(=O)[C@H]2C[C@@H](Cc3ccncc3)CN2C(=O)CNC(=O)[C@H](CCN)NC(=O)[C@H](CCC(N)=O)NC(=O)[C@H](Cc2cncnc2)NC(=O)C(C)(C)NC(=O)[C@H](Cc2c[nH]c3ccccc23)NC1=O` [Example 41] (cyclo([4Pal][Phe(4-COOH)]G[Pro(cis-4-F)][Trp(βS-Me,4-F)][Aib]AW[Aib][Ala(pyrimidin-5-yl)]Q[Dab]G[dPro(4R-(4-pyridylmethyl))][Bip(4'-COOH)])) belongs 0.029 nM.
As to `C[C@@H](c1c[nH]c2cccc(F)c12)[C@@H]1NC(=O)[C@@H]2C[C@H](F)CN2C(=O)CNC(=O)[C@H](Cc2ccc(C(=O)O)cc2)NC(=O)[C@H](Cc2ccncc2)NC(=O)[C@H](Cc2ccc(-c3ccc(C(=O)O)cc3)cc2)NC(=O)[C@H]2C[C@@H](Cc3ccncc3)CN2C(=O)CNC(=O)[C@H](CCN)NC(=O)[C@H](CCC(N)=O)NC(=O)[C@H](Cc2cncnc2)NC(=O)C(C)(C)NC(=O)[C@H](Cc2c[nH]c3ccccc23)NC(=O)[C@H](CO)NC(=O)C(C)(C)NC1=O` [Example 42] (cyclo([4Pal][Phe(4-COOH)]G[Pro(cis-4-F)][Trp(βS-Me,4-F)][Aib]SW[Aib][Ala(pyrimidin-5-yl)]Q[Dab]G[dPro(4R-(4-pyridylmethyl))][Bip(4'-COOH)])), the 50% inhibitory concentration (IC50) amounted to 0.021 nM.

These data come from US20260242419A1, “A CYCLIC PEPTIDE FOR TRAPPING INTERLEUKIN-1 BETA” (Merck Sharp & Dohme LLC, priority 2023, published 2026).
